Key:
[1] = Photophysical characterization (UV-Vis absorption, isomerization under blue light); assay type: physicochemical
From the text: (§1) The Ziapin 2 molecule (FIG. 1a) in DMSO has a strong absorption peak centered at 470 nm (FIG. 1b) and a peak at 330nm, attributed respectively to the transitions n→Π* and Π→Π* of the E isomer. […] Azobenzene fluorescence is also an ideal tool for monitoring the switch behavior of photoreponsive materials, as well as the localization and photodynamics in living cells. The decrease of Ziapin 2 time-dependent fluorescence following exposure to blue light in DMSO solution (FIG. 1c) is related to the weakening of the photoluminescence of the E conformer due to the photoisomerization reaction. Time-dependent fluorescence measurements (FIG. 1d) indicate a clear “photo-switching” dynamics of azobenzene in living HEK293 cells, with estimated isomerization/relaxation degrees of 0.01 cm^2J^−1 and 0.0085s^−1. […] An analogous characterization was performed with the Ziapin 1 molecule (FIG. 1e,f).
The isomerization reaction for the compound NO2/1C6Py is not observed, since in this case the nitro-azobenzene having a push-pull configuration has a rapid thermal relaxation (>ns) which hinders the appearance of the absorption of the cis isomer in the investigated temporal regime (Bandara et al., Chem. Soc. Rev., 2012, 41, 1809-1825).

primary neurons [2] = assay: Compound localization testing by confocal microscopy (Cell Mask, Vybrant markers); assay type: cell-based; conditions: for coverage of the cell surface / fraction of compound located in plasma membranes and in lipid rafts: primary neurons, confocal microscopy
From the text: FIG. 4: confocal microscopy images showing the localization of the Ziapin 2 molecule in the vicinity of the plasma membranes (a) and in the lipid rafts (b) of primary neurons.
FIG. 5: confocal microscopy images showing the localization of the Ziapin 1 molecule in the vicinity of the plasma membranes (a) and in the lipid rafts (b) of primary neurons.
Molecules tend to localize in cell membranes and change their conformation. […] The targeting of both molecules at the plasma membrane level was analyzed in cultures of primary neurons using specific markers for the cell membrane (Cell Mask, FIG. 4a, FIG. 5a, respectively) or for lipid rafts, membrane areas rich in cholesterol and ion channels (Vybrant, FIG. 4b, FIG. 5b, respectively).

primary neurons [3] = assay: Electrophysiology (current-clamp) on primary neurons under light stimulation; assay type: cell-based
Procedure: FIG. 6: electrophysiology conducted on HEK293 cells (a, b), primary neurons in the absence (c, d) or in the presence of synaptic blockers (e, f) treated with Ziapin 2 and under illumination. (a) Representative average current-clamp traces recorded from HEK293 cells incubated with DMSO 0.25% (v/v) (Ctrl; black line) or 25 μM Ziapin 2 in DMSO (gray line) and photostimulated for 20 ms (top) or 200 ms (bottom) (wavelength 470 nm, light power density of 47 mW/mm^2, shaded areas in gray). (b) Average hyperpolarization and subsequent depolarization in HEK293 cells. (c, d) Representative current-clamp traces of passive (hyperpolarization/depolarization, left) and active (action potentials, right) responses recorded from neurons incubated in DMSO 0.25% (v/v) (Ctrl; black line) or with 5 μM Ziapin 2 in DMSO (gray line) in the absence (c) or presence (e) of synaptic blockers. The duration of light stimulation (20 and 200 ms, respectively) is indicated as a shaded area (wavelength 470 nm, light power density of 20 mW/mm^2). (d, f) Quantification of the hyperpolarization (left) and depolarization (right) peak in primary neurons exposed to DMSO or Ziapin 2 in the absence (d) or presence (f) of synaptic blockers and subjected to 20 or 200 ms of light stimulation.
FIG. 7: modulation of membrane capacitance and conductance in primary neurons following light stimulation. Representative traces of capacity (a) and conductance (b) recorded in current-clamp from primary neurons incubated with 0.25% (v/v) DMSO (Ctrl; black line) or 5 μM Ziapin 2 in DMSO (gray line) in the presence of synaptic and photostimulated blockers with 20 ms (left) or 200 ms (right) (wavelength 470 nm, light power density of 20 mW/mm^2, shaded areas). (c, d) Quantification of peak capacity (c) and conductance (d) variations evoked by light stimuli of 20 and 200 ms.
FIG. 8: effect of Ziapin 1 on passive and active membrane properties in primary hippocampal neurons. […] (a) Quantification of hyperpolarization (left) and depolarization (right) in response to light stimulation for 20/200 ms. […]

HEK293 cells = assay: Time-dependent fluorescence photo-switching dynamics in living HEK293 cells; assay type: cell-based
Procedure: FIG. 1: (a) scheme of the isomerization process of a compound according to the present invention. Absorption (b) and emission (c) spectra of the compound Ziapin 2 25 μM in DMSO. (d) photoswitching dynamics of Ziapin 2 in water, DMSO and in HEK293 cells. (e, f) absorption and photoluminescence of Ziapin 1 25 μM in DMSO (e) and evolution of the absorption peak at 470 nm by illuminating with a diode at 450 nm (f).
as §1

somatosensory cortex = assay: Cortical responses evoked by light in vivo (LFP recordings after stereotaxic injection); parameters: species or system mice
Procedure: FIG. 9: cortical responses evoked by light in vivo in the somatosensory cortex of mice exposed to Ziapin 2. (a) Schematic representation of the stereotaxic injection of Ziapin 2 (200 mM in 1 μl of 10% DMSO) in the somatosensory cortex (S1ShNc, 2 mm anterior to lambda, 2 mm lateral to the midline and −723 μm ventral to the brain surface) and of the 16-fiber optic coupled microelectrode system for photostimulation and field potential recordings (LFP). (b) Representative LFP recordings evoked in the somatosensory cortex with light stimulation of 20 and 200 ms (43 mW/mm^2) in mice injected with DMSO (black line) or Ziapin 2 (gray line). The shaded areas represent light stimulation. (c) Dose-response analysis of LFPs in mice injected with DMSO (black line) or Ziapin 2 (gray line) depending on the power and duration of photostimulation.
The objective was to investigate whether the light-dependent modulation of neuronal activity observed in vitro occurred also in vivo. The electrophysiological recordings were obtained by implanting an array of 16 microelectrodes coupled to an optical fiber for photostimulation. […] The response peaked at around 200 ms following the light stimulus (FIGS. 9c and d).

Row | trans-cis isomerization reaction in UV-Vis absorption spectra ([1]; 470 nm, FIG. 18) | strong absorption peak ([1]; in DMSO, E isomer, transition n→Π*) [nm] | absorption peak ([1]; in DMSO, E isomer, transition Π→Π*) [nm] | diameter of the area of diffusion and absorption of the molecule by cortical cells (somatosensory cortex; 1 μl in the somatosensory cortex, fluorescence analysis) | Compound | coverage of the cell surface (primary neurons [2]) | fraction of compound located in plasma membranes and in lipid rafts (primary neurons [2]) | modulation of passive and active membrane properties following light stimulation (primary neurons [3]; compared with Ziapin 2) | estimated isomerization degree (HEK293 cells) [cm^2J^−1] | estimated relaxation degree (HEK293 cells) [s⁻¹] | localization at the lipid rafts, Ziapin 2 compared with Ziapin 1 (primary neurons [2]; primary neuron cultures exposed to compound) | membrane potential response to the light stimulus (primary neurons [3]; 20 or 200 ms light) | capacity and conductivity of the membrane under light stimulation compared to the values in the dark (primary neurons [3]; synaptic blockers) | time of response peak following the light stimulus (somatosensory cortex; LFP, somatosensory cortex) | LFP changes with respect to DMSO alone (somatosensory cortex; absence of the light stimulus and highest power used (160 mW/mm^2)) | LFP response compared with DMSO (somatosensory cortex; higher power densities) | cortical activity evaluated in terms of field potentials (LFP) (somatosensory cortex; optical stimulation 20 and 200 ms, 472 nm laser, different intensities) | LFP response compared with animals treated with DMSO (somatosensory cortex; stimulations at 25 and 43 mW/mm^2, 20 ms illumination)
1 | not observed | – | – | – | O=[N+]([O-])c1ccc(N=Nc2ccc(NCCCCCC[n+]3ccccc3)cc2)cc1 [NO2/1C6Py] | – | – | – | – | – | – | – | – | – | – | – | – | –
2 | – | – | – | – | c1cc[n+](CCCCCCNc2ccc(N=Nc3ccc(N4CCCCCC4)cc3)cc2)cc1 [Ziapin 1] | about 20% | less than 50% | lower modulation effect | – | – | – | – | – | – | – | – | – | –
3 | – | 470 | 330 | about 1 mm | c1cc[n+](CCCCCCN(CCCCCC[n+]2ccccc2)c2ccc(N=Nc3ccc(N4CCCCCC4)cc3)cc2)cc1 [Ziapin 2] | about 20% | about 70% | – | 0.01 | 0.0085 | considerably more marked | hyperpolarization is followed by a depolarization | significant decrease | around 200 ms | No significant changes | significantly higher | significant activation | significantly different

Reference: patent publication US11401250B2, “Photochromic compounds for use in the treatment of eye disorders” (FONDAZIONE ISTITUTO ITALIANO DI TECNOLOGIA, priority 2018, dated 2022)
